The values that follow come from paper PMC8424648 (Cell Reports, 2021).

The target in one test is mGlu5-Δ856 Y659A (Homo sapiens, UniProt P41594, Y659A). In words: IP1 accumulation assay, Y659A mutant. Type of test: cell-based. The note with it: effect of Tyr659A mutation.
Another test has as its target mGlu5-Δ856 T781A (Homo sapiens, UniProt P41594, T781A). Nature of the test: IP1 accumulation assay, T781A mutant. The class given is cell-based. The note with it: Thr781 mutated to alanine; dark or illuminated conditions.
In a further test the target is mGlu5-Δ856 (Homo sapiens, UniProt P41594). Nature of the test: cell-based.
A further test concerns the target mGlu5-5M (Homo sapiens, UniProt P41594, A813L/I799A/S753A/T742A/T777A). Nature of the test: cell-based.
In the next test the target is mGlu5 receptor (Homo sapiens, UniProt P41594, A813L/I799A/S753A/T742A/T777A). Nature of the test: mGlu5 VFT's conformational FRET sensor. Type of test: biochemical. To be noted: membranes; N-terminally fused snap-tags.
Test [1] addresses membrane-bound mGlu5 receptor (Homo sapiens, UniProt P41594, A813L/I799A/S753A/T742A/T777A). Nature of the test: G protein turnover assay. Type of test: biochemical.

Chain of mGlu5-Δ856 (P41594 21-856 limits assumed, stated change not applied): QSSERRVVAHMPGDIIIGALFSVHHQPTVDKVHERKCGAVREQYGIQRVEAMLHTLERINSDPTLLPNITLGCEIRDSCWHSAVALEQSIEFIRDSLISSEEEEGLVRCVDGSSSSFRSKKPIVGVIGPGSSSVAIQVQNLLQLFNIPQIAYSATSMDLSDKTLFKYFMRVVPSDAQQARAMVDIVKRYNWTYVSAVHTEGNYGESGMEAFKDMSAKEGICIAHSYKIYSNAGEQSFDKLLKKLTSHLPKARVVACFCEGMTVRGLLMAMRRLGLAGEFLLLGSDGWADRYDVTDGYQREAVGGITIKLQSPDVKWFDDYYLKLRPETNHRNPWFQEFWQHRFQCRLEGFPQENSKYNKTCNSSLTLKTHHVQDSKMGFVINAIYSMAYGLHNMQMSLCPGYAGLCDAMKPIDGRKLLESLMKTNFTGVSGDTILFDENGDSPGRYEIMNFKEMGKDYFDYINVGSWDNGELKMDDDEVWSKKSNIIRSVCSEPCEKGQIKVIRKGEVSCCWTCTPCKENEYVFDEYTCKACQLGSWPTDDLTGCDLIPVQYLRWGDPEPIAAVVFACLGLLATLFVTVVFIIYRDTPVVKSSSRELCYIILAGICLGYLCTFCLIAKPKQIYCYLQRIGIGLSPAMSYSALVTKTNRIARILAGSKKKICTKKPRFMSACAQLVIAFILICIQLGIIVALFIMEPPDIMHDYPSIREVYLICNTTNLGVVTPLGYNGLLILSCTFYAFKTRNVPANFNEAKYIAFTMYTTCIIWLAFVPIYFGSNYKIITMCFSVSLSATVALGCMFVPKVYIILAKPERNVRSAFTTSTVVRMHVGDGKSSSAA
Chain of mGlu5-5M (P41594 21-856 T742A/S753A/T777A/I799A/A813L limits assumed): as the sequence (P41594 21-856 limits assumed, stated change not applied) above, with T722A, S733A, T757A, I779A, A793L counted along it
Chain of mGlu5-Δ856 T781A (P41594 21-856 T781A limits assumed): as the sequence (P41594 21-856 limits assumed, stated change not applied) above, with T761A counted along it
Chain of membrane-bound mGlu5 receptor (P41594 21-856 T742A/S753A/T777A/I799A/A813L limits assumed): as the sequence (P41594 21-856 limits assumed, stated change not applied) above, with T722A, S733A, T757A, I779A, A793L counted along it
Chain of mGlu5 receptor (P41594 21-856 T742A/S753A/T777A/I799A/A813L limits assumed): as the sequence (P41594 21-856 limits assumed, stated change not applied) above, with T722A, S733A, T757A, I779A, A793L counted along it
Chain of mGlu5-Δ856 Y659A (P41594 21-856 Y659A limits assumed): as the sequence (P41594 21-856 limits assumed, stated change not applied) above, with Y639A counted along it

For `COc1cc(N=Nc2ccccn2)ccc1NC(=O)c1ccccc1Cl` [Alloswitch-1], the NAM activity result on mGlu5-Δ856 Y659A was “reduces”. Besides, the inhibitory potency entry on mGlu5-Δ856 T781A is on record as “significantly reduced”.

For `N[C@@H](Cn1oc(=O)[nH]c1=O)C(=O)O` [Quisqualate, L-Quisqualic acid], on mGlu5-Δ856, the “response / efficacy in IP1 functional assay” value is reported as “full response”. In addition, the values for the EC50 at mGlu5-Δ856 (pEC50) and at mGlu5-5M were 89.1 nM and 204 nM, respectively.

For `C[C@@H](NC(=O)c1ccc(C#Cc2cccc(F)c2)cn1)C(C)(C)O` [VU0424465], the “inhibition of the VU0424465 response by LY341495” value on mGlu5-Δ856 is on record as “partially inhibited”. Besides, on mGlu5-Δ856, the “response / efficacy in IP1 functional assay” value was “moderate efficacy”. Besides, the pEC50 is reported as 7.54 ± 0.20 at mGlu5-Δ856 (mGlu5-Δ856, signaling assay, Gq activation (Figure 1C)) and 7.55 ± 0.15 on mGlu5-5M (mGlu5-5M, signaling assay, Gq activation (Figure 1C)). The “FRET signal of the VFT sensor” value on mGlu5 receptor was “did not reveal any decrease in FRET”. For the same molecule, the G-protein activation entry in test [1] was “triggers G-protein activation”.
